# What was measured:
# [1] = test system: Alzheimer's disease mouse model subjected to intraventricular injection of Aβ; test: Novel object recognition test, oral administration, Alzheimer's disease mouse model subjected to intraventricular injection of Aβ25-35; type: in vivo; conditions: day 5 after Aβ25-35, ICR mice, FIG. 2
# Procedure: (§1) An Alzheimer's disease mouse model was produced by injecting Aβ25-35 (the aggregation of which had been accelerated by 4 days of incubation at 37° C.) to mouse cerebral ventricle, following which it was used for the experimental system. ICR mice (body weight of 20-22 g (7 weeks old), purchased from Japan SLC Inc. (Shizuoka, Japan)) were divided into 4 groups (n=15). A physiological saline solution that is a solvent for Leu-Ile, Leu-Ile (1.5 μmol/Kg), or Leu-Ile (15 μmol/Kg) was administered to Alzheimer's disease mouse model groups. Then the groups were used for the experiment.
# Moreover, an Leu-Ile 7.5 μmol/Kg administrated group and an Leu-Ile 75 μmol/Kg administrated group were subjected to oral administration of Leu-Ile (7.5 μmol/Kg) and Leu-Ile (75 μmol/Kg), respectively, immediately after administration of Aβ25-35. A novel object recognition test (Ennaceur et al., Behav Brain Res 80 9-25, 1996) was conducted for all groups 3 to 5 days after intraventricular administration of Aβ25-35 or a physiological saline solution. The test results on day 5 after administration of Aβ25-35 or a physiological saline solution were compared with the other test results on […] after administration (FIG. 2).
# [2] = test system: untreated mice; test: Novel object recognition test in untreated mice; type: in vivo, mouse; conditions: Leu-Ile 15 μmol/Kg intraperitoneal; untreated mice (no Aβ25-35)
# Procedure: (§2) A novel object recognition test was conducted for each of the above groups 3 to 5 days after intraventricular administration of Aβ25-35 or a physiological saline solution. The test results on day 5 after administration of Aβ25-35 or a physiological saline solution were compared with the other test results on […] after administration (FIG. 3). Furthermore, Leu-Ile (15 μmol/Kg) was intraperitoneally administered to untreated mice and then the mice were subjected to a novel object recognition test similar to that conducted for the above test groups.
# [3] = test system: Alzheimer's disease mouse model subjected to intraventricular injection of Aβ; test: Novel object recognition test, intraperitoneal administration, Alzheimer's disease mouse model subjected to intraventricular injection of Aβ25-35; type: in vivo; conditions: day 5 after Aβ25-35, ICR mice, FIG. 3
# Procedure: as §1, with “cerebral ventricle and then” for “cerebral ventricle, following which it was”, “20-22 g,” for “20-22 g (7 weeks old),”, “into 5” for “into 4”, “solution was administered instead of Aβ25-35 to the cerebral ventricle of a control group. A physiological saline solution;” for “solution”
# The Alzheimer's disease model control group, the Leu-Ile […] administrated group, the Leu-Ile 15 μmol/Kg administrated group, and an Leu-Ile 75 μmol/Kg administrated group were separately subjected to the experiment.
# Specifically, the Leu-Ile 7.5 μmol/Kg administrated group, the Leu-Ile 15 μmol/Kg administrated group, and the Leu-Ile 75 μmol/Kg administrated group were subjected to intraperitoneal administration of Leu-Ile (7.5 μmol/Kg), Leu-Ile (15 μmol/Kg), and Leu-Ile (75 μmol/Kg), respectively, immediately after administration of Aβ25-35.
# as §2
substance,measurement,setting,value
Leu-Ile,recognition indices (novel object recognition test),[1]; Leu-Ile 7.5 μmol/Kg oral,decreased recognition indices were not confirmed
same,recognition indices (novel object recognition test),[1]; Leu-Ile 75 μmol/Kg oral,decreased recognition indices were not confirmed
same,effects of improving memory (novel object recognition test),[2],effects of improving memory were not observed
same,recognition indices (novel object recognition test),[3]; Leu-Ile 1.5 μmol/Kg intraperitoneal,decreased recognition indices were not observed
same,recognition indices (novel object recognition test),[3]; Leu-Ile 15 μmol/Kg intraperitoneal,decreased recognition indices were not observed
same,recognition indices (novel object recognition test),[3]; Leu-Ile 75 μmol/Kg intraperitoneal,decreased recognition indices were not observed

# From patent publication US20100087383A1, “INT[…] INHIBITOR AND USE THEREOF” (National University Corporation Nagoya University, priority 2006, published 2010)
